Experimental findings from patent US10787435B2, “ASK1 inhibitor and preparation method and use thereof” (FUJIAN COSUNTER PHARMACEUTICAL CO., LTD., priority 2017, dated 2020) are described below.

pIC50: −log10 of the molar value. Where only a bound is given, the exact number is not on record here.

Data set [1] addresses ASK1/MAP3K5 (Homo sapiens (Human), UniProt Q99683). Put plainly: Evaluation of in vitro enzyme activity (33P-ATP radiometric kinase assay, MBP substrate). The conditions noted are these: recombinant human full length GST-tagged ASK1 20 nM, MBP 20 μM. The class given is biochemical. Here is the method:
Example 1: Evaluation of In Vitro Enzyme Activity
Base Reaction Buffer: 20 mM Hepes (pH 7.5), 10 mM MgCl2, 1 mM EGTA, 0.02% Brij35, 0.02 mg/ml BSA, 0.1 mM Na3VO4, 2 mM DTT, 1% DMSO
The test compound was formulated into a 10 mM stock solution in DMSO, which was diluted into 10 concentrations in 3-fold degression, and placed in a 384-well plate (Cyclic Olefin Copolymer LDV Echo®).
Kinase Name: ASK1/MAP3K5 (Invitrogen, Carlsbad, Calif.)
Type: Recombinant Human Full Length Protein, GST-tagged
Final concentration of the enzyme: 20 nM
Substrate: Myelin basic protein, MBP (Active Motif, Carlsbad, Calif.)
Final concentration of the substrate: 20 μM
1. The substrate was dissolved in a freshly prepared base reaction buffer.
2. A desired coenzyme was added to the above substrate solution.
3. The kinase was added to the substrate solution and mixed slowly.
4. The solution of the test compound in DMSO was added to the kinase reaction solution and incubated at room temperature for 20 minutes.
5. ^33P-ATP (specific activity of 10 μCi/μl) was added to the reaction solution to initiate the reaction.
6. Incubated at room temperature for 2 hours.
7. A small portion of the reactants was placed onto a P-81 ion exchange filter paper.
8. The filter paper was washed three times with 0.75% […] to wash off the unbound phosphate, and then the filter paper was dried.
9. The radioactivity remaining on the filter paper was determined.
10. Kinase activity data was expressed as the ratio of the kinase activity remaining in the test sample to the kinase activity in the vehicle (DMSO).
11. IC50 values and curve fits was obtained with Prism (GraphPad software).

Data set [2] is described as follows: Studies on pharmacokinetic properties in mice (plasma concentration by LC-MS/MS). The class given is in vivo. The conditions noted are these: C57BL/6 male mice, dose not stated; for Exposure: intravenous or oral administration; for bioavailability: mouse, po, intragastric vs tail vein. Here is the method: Example 2: Studies on Pharmacokinetic Properties
C57BL/6 male mice were used as subject animals in the study. The concentration of the drug in the plasma of mice injected intravenously or administrated orally with the test compound was quantified at different time points by using a LC/MS/MS method to evaluate the pharmacokinetic characteristics of the test drug in mice.
A clear solution of the test compound was injected into C57BL/6 mice (overnight-fasted, 7-10 weeks old) via the tail vein, and the test compound was intragastrically administered to C57BL/6 mice (overnight-fasted, 7-10 weeks old). Approximately 30 μL of blood was collected from each animal via the jugular vein or tail vein at 0.0833, 0.25, 0.5, 1, 2, 4, 6, 8 and 24 hours after administration, and placed in an anticoagulant tube supplemented with EDTA-K2. Centrifuged at 3000 g at 4° C. for 15 min, and the plasma was collected. The plasma concentration was determined by LC-MS/MS. The pharmacokinetic parameters were calculated by using the non-compartment model and linear logarithmic trapezoidal method using the pharmacokinetic software WinNonlin™ Version 6.3 (Pharsight, Mountain View, Calif.).

ASK1/MAP3K5, sequence (Q99683 whole entry): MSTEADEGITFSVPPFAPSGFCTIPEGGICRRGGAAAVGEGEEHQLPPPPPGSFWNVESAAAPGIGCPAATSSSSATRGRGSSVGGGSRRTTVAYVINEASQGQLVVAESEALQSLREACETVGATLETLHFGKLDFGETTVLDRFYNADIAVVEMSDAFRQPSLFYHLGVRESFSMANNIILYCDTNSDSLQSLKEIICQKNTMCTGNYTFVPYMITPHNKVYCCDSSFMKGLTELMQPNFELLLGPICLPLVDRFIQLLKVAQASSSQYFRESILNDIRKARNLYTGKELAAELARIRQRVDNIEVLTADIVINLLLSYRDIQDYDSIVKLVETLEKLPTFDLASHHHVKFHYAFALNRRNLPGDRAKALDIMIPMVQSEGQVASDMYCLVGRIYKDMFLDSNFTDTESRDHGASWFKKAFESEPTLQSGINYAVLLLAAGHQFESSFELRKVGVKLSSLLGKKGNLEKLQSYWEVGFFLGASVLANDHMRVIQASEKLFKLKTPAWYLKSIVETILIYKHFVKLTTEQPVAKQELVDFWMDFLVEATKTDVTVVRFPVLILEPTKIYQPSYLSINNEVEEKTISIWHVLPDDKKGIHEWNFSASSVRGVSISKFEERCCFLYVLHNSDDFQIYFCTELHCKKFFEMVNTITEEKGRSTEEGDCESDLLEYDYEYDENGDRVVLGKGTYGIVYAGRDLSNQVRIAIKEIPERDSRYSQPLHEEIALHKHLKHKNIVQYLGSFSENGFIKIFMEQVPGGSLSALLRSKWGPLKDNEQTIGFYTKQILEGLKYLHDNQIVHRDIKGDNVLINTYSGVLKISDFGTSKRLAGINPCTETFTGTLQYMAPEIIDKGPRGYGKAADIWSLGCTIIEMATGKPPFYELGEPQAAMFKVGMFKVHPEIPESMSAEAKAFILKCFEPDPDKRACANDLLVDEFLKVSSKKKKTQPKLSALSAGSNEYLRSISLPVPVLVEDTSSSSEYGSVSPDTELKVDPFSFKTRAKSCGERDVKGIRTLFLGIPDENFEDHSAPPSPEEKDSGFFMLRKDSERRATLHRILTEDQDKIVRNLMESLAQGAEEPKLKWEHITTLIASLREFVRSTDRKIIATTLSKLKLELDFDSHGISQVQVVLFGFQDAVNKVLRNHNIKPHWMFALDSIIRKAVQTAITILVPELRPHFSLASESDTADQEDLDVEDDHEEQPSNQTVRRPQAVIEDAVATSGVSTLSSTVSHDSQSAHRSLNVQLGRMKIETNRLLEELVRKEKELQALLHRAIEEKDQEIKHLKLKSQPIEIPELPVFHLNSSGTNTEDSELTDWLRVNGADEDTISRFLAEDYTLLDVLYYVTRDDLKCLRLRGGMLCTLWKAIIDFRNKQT

For orientation: pIC50 means −log10 of the IC50, conventionally taken in molar units. Consider `Cc1cc2ncn(-c3cccc(-c4nncn4C(C)C)n3)c(=O)c2cc1-n1cnc(C2CC2)c1` [Example 011], for which the pIC50 in data set [1] is at least 7.30. Moreover, in data set [2], the Exposure was found to be 31.832 µM·h and the bioavailability worked out at 108%.

Turning to `Cc1cc2ncn(-c3cccc(-c4nncn4C4CC4)n3)c(=O)c2cc1-n1cnc(C2CC2)c1` [Example 018], the pIC50 in data set [1] is at least 7.30. Further, in data set [2], the Exposure was determined as 59.568 µM·h and the bioavailability was 111%.

In the case of `COc1ccc(-c2cc3ncn(-c4cccc(-c5nncn5C(C)C)n4)c(=O)c3cc2-n2cnc(C3CC3)c2)cn1` [Example 033], the pIC50 in data set [1] was at least 7.30. Also, in data set [2], the Exposure is 20.356 µM·h and the bioavailability stood at 148%.
